Results from patent US20240374692A1, “A NOVEL ACYLATED INSULIN ANALOG” (SUNSHINE LAKE PHARMA CO., LTD., priority 2021, published 2024).
Where two headings read alike, the source gives them in different places.

Key:
insulin receptor B = target: T1, insulin receptor B (Homo sapiens, UniProt P06213); assay: Insulin receptor B autophosphorylation in transfected cells (Cisbio Phospho-IR beta Tyr1150/1151 kit); assay type: cell-based; conditions: for Relative HI activity: relative to human insulin; for Relative 0% HSA activity: 1.5% HSA relative to 0% HSA
T1 construct: expressed in transfected cells
T1 sequence (P06213 28-758 limits assumed): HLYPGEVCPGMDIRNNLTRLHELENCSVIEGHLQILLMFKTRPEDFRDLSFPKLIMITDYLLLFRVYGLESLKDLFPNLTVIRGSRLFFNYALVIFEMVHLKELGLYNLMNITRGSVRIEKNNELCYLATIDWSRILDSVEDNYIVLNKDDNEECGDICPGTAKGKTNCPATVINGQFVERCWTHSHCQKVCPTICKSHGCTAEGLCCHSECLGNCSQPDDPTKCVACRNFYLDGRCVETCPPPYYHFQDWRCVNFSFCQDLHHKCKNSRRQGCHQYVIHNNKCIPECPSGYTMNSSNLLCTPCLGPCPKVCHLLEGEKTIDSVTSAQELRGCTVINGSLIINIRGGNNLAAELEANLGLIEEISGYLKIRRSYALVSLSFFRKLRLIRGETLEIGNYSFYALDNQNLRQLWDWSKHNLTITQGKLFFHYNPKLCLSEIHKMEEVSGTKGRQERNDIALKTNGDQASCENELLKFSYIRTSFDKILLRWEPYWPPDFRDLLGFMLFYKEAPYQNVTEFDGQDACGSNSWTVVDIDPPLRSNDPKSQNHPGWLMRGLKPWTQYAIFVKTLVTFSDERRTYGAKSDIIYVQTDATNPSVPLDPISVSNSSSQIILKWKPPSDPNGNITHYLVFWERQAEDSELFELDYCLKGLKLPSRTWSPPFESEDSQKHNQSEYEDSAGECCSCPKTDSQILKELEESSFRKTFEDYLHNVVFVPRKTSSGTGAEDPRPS
T1 sequence (P06213 763-1382 partner limits assumed): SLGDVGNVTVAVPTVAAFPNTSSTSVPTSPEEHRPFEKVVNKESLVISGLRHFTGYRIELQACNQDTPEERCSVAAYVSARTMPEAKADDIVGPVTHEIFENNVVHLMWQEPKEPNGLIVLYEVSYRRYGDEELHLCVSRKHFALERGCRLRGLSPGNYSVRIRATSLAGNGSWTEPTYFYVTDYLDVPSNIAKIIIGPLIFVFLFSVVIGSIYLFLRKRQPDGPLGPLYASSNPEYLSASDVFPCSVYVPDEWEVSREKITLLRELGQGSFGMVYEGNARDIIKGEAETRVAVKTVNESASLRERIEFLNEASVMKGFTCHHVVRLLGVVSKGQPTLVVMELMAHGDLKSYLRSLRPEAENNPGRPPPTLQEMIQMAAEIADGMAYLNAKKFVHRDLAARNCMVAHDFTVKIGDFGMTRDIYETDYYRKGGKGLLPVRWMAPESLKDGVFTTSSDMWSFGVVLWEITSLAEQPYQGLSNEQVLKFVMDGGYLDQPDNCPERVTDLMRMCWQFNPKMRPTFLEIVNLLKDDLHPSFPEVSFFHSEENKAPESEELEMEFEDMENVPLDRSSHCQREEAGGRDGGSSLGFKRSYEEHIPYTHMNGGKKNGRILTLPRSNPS
Procedure: The phosphorylation level of insulin receptor B was detected by Cisbio's Phospho-IR beta (Tyr1150/1151) kit method to evaluate the biological activity of insulin. The cells were seeded into a 96-well plate overnight, and after the serum in the medium was removed, 40 μl of serum-free medium was added to culture for about 4 h. Then a dilution series of insulin derivatives were prepared with blank solution (0.6% casein, 0.06 mg/mL EDTA, 1×DPBS) and incubated with cells in the 96-well plate for 5 min in a CO2 incubator (37° C., 5% CO2). The liquid in the 96-well plate was poured off, 100 µL of a mixture of lysis buffer (2% Triton X-100, 150 mM NaCl, 50 mM HEPES, pH=7) and inhibitor (Blocking Reagent in the kit) was added to lyse the cells, then the plate was shaken at 350 rpm for 30 min. Relative activity (in percent (%)) was assessed by measuring insulin receptor phosphorylation levels in the supernatant after cell lysis and fitting a curve to the data using nonlinear regression in Graphpad Prism 5 software. Related assays were also used, in which the blank solution also contained 1.5% HSA to simulate physiological conditions. Changes in the phosphorylation levels of the insulin-activated insulin receptors of the invention were detected as an indirect reflection of the albumin binding activity.

normal C57BL/6 mice = assay: Hypoglycemic effect, single subcutaneous administration to normal C57BL/6 mice; assay type: in vivo; design: blood glucose: unit not given here; conditions: for blood glucose compared with the control group: 1 h after single S.C. administration; for blood glucose: Mean ± SEM, n = 6
Procedure: SPF grade C57BL/6 mice were reared in a suitable rearing box in a barrier environment, with a rearing temperature of 20-26° C., a humidity of 40-70%, a time between day and night of 12 h/12 h, and the mice had free access to standard food and autoclaved sterilization water. After a 3-day quarantine period and a 2-day acclimation period, random blood glucose was measured and mice were weighed. Mice were divided into 6 groups according to random blood glucose and body weight.
Single subcutaneous administration (S.C.) was used to administer the corresponding vehicle or drug. The control group was administered the vehicle PBS without fasting during the whole process, and the animals were allowed to eat and drink freely. Random blood glucose values of C57 mice were measured before administration and at 0.25, 0.5, 1, 2, 4, 6, 8, 10, 24, 48, 54, 72 and 96 hours after administration.
(§1) All raw data were entered into Excel files and expressed as Mean±SEM. Statistical analysis of data was performed using Graphpad Prism 7.0 software, one-way or two-way ANOVA comparison method, and P<0.05 was used as the criterion for significant differences.

[1] = test system: STZ-induced type I diabetes mellitus (T1DM) C57BL/6 mice; assay: Hypoglycemic effect, repeated administration (three times) to STZ-induced T1DM C57BL/6 mice (Example 6); assay type: in vivo; design: key to random blood glucose: blood glucose in mmol/L; conditions: for random blood glucose: Mean ± SEM, n = 7
Procedure: SPF grade C57BL/6 mice were reared in a suitable rearing box in a barrier environment, with a rearing temperature of 20-26° C., a humidity of 40-70%, a time between day and night of 12 h/12 h, and the mice had free access to standard food and autoclaved sterilization water. After the 3-day quarantine period and the 2-day acclimation period, the mice were fasted for 12 h, and the mice were injected intraperitoneally with streptozotocin solution (STZ, 13 mg/mL, in citrate buffer) at 130 mg/kg. 3 Days and 7 days after administration of streptozotocin, random blood glucose and fasting blood glucose were detected, and the random blood glucose value above 25 mmol/L and fasting blood glucose value above 11.1 mmol/L were selected as T1DM model mice for follow-up experiments. On the day before administration, random blood glucose was monitored and mice were weighed. Mice were divided into 6 groups according to random blood glucose and body weight.
Subcutaneous administration (S.C.) was used to administer the corresponding vehicle or drug, once every 4-5 days, for a total of 3 administrations. During the experiment, the animals were allowed to eat and drink water freely. The random blood glucose before the first administration, and 0.25, 0.5, 1, 2, 4, 6, 8, 10, 24, 48, 72, and 96 h after administration were assessed, as well as the random blood glucose before the second and third administration, and 0.5, 1, 2, 6, 24, 48, 72, 96 and 120 h after administration.
as §1

[2] = rat, in vivo, sc, 10 nmol/kg
[3] = dog, in vivo, iv, 10 nmol/kg
Procedure: Two beagle dogs, one in each group, a double-cycle crossover design was used, with a washout period of 1 week, and a single dose of 10 nmol/kg of Icodec or Insulin-a10 was administered to the lateral small saphenous vein of the hind limb in each cycle, the blood was collected and plasma was centrifuged at 0.083, 0.25, 0.5, 1, 2, 6, 8, 24, 30, 48, 72 and 96 h after administration, the concentration of Icodec or Insulin-a10 in the plasma was detected.

[4] = single S.C., Degludec 200 nmol/Kg, others 1400 nmol/Kg
[5] = 500 nmol/Kg S.C. three times, Day 0 (1st)
[6] = 500 nmol/Kg S.C. three times, Day 1
[7] = 500 nmol/Kg S.C. three times, Day 4 (2nd)
[8] = 500 nmol/Kg S.C. three times, Day 5
[9] = 500 nmol/Kg S.C. three times, Day 9 (3rd)
[10] = 500 nmol/Kg S.C. three times, Day 10
[11] = 500 nmol/Kg S.C. three times, Day 14

Substance | EC50 (insulin receptor B; 0% HSA) [nM] | Relative HI activity (insulin receptor B; 0% HSA) [%] | EC50 (insulin receptor B; 1.5% HSA) [nM] | Relative 0% HSA activity (insulin receptor B) [%] | Relative HI activity (insulin receptor B; 1.5% HSA) [%] | blood glucose compared with the control group (normal C57BL/6 mice) | effective blood glucose control time (normal C57BL/6 mice; [4]) | time after administration at which blood glucose reached the lowest level (normal C57BL/6 mice; [4]) [h] | random blood glucose [1, 5] | random blood glucose [1, 6] | random blood glucose [1, 7] | random blood glucose [1, 8] | random blood glucose [1, 9] | random blood glucose [1, 10] | random blood glucose [1, 11] | AUClast [2] [ng·h/mL] | MRTINF_obs [2] [h] | T1/2 [2] [h] | AUClast [3] [ng·h/mL] | T1/2 [3] [h] | further results
A14E, B16H, B25H, B29K (N^ε-eicosandioyl-gGlu-2xOEG), DesB30 human insulin analog [Icodec, reference compound] | 77.2 | 1.60 | 1480 | 5.23 | 0.17 | decreased significantly | 96 h | 48 | 32.5 ± 1.6 | 20.3 ± 6.3 | 30.6 ± 2.6 | 19.5 ± 5.8 | 27.0 ± 7.1 | 15.9 ± 6.0 | 33.0 ± 0.9 | 6560 | 30.5 | 16.7 | 35700 ± 120 | 35.7 ± 6.7 | random blood glucose ([1]; 250 nmol/Kg S.C. three times, Day 0 (1st)): 32.5 ± 2.2; random blood glucose ([1]; 250 nmol/Kg S.C. three times, Day 1): 25.7 ± 4.2; random blood glucose ([1]; 250 nmol/Kg S.C. three times, Day 4 (2nd)): 31.3 ± 2.6; random blood glucose ([1]; 250 nmol/Kg S.C. three times, Day 5): 25.1 ± 3.2; random blood glucose ([1]; 250 nmol/Kg S.C. three times, Day 9 (3rd)): 31.8 ± 2.2; random blood glucose ([1]; 250 nmol/Kg S.C. three times, Day 10): 17.2 ± 6.8; random blood glucose ([1]; 250 nmol/Kg S.C. three times, Day 14): 30.6 ± 4.6; random blood glucose ([1]; 1000 nmol/Kg S.C. three times, Day 0 (1st)): 30.8 ± 2.9; random blood glucose ([1]; 1000 nmol/Kg S.C. three times, Day 1): 20.4 ± 4.6; random blood glucose ([1]; 1000 nmol/Kg S.C. three times, Day 4 (2nd)): 31.6 ± 2.1; random blood glucose ([1]; 1000 nmol/Kg S.C. three times, Day 5): 12.8 ± 5.4; random blood glucose ([1]; 1000 nmol/Kg S.C. three times, Day 9 (3rd)): 29.7 ± 3.7; random blood glucose ([1]; 1000 nmol/Kg S.C. three times, Day 10): 10.1 ± 6.4; random blood glucose ([1]; 1000 nmol/Kg S.C. three times, Day 14): 27.7 ± 4.6
A14E, B16H, B25H, B29K(N(ε)-COOH(CH2)18CO-L-Lys-CO(CH2)2CO—(OEG)2), desB30 human insulin analog [Insulin-a10] | 85.5 | 1.44 | 1310 | 6.52 | 0.20 | decreased significantly | more than 96 h | 72 | 32.0 ± 1.7 | 19.7 ± 6.6 | 27.6 ± 4.4 | 15.2 ± 8.9 | 26.6 ± 5.7 | 11.7 ± 9.4 | 26.1 ± 6.2 | 9350 | 29.2 | 17.2 | 28300 ± 3500 | 46 ± 10.8 | blood glucose (normal C57BL/6 mice; 0 h (before administration), single S.C., Degludec 200 nmol/Kg, others 1400 nmol/Kg): 9.1 ± 1.5; blood glucose (normal C57BL/6 mice; 0.25 h after single S.C., Degludec 200 nmol/Kg, others 1400 nmol/Kg): 7.9 ± 1.5; blood glucose (normal C57BL/6 mice; 1 h after single S.C., Degludec 200 nmol/Kg, others 1400 nmol/Kg): 4.4 ± 0.6; blood glucose (normal C57BL/6 mice; 2 h after single S.C., Degludec 200 nmol/Kg, others 1400 nmol/Kg): 4.4 ± 1.3; blood glucose (normal C57BL/6 mice; 4 h after single S.C., Degludec 200 nmol/Kg, others 1400 nmol/Kg): 3.7 ± 1.0; blood glucose (normal C57BL/6 mice; 6 h after single S.C., Degludec 200 nmol/Kg, others 1400 nmol/Kg): 3.5 ± 1.1; blood glucose (normal C57BL/6 mice; 8 h after single S.C., Degludec 200 nmol/Kg, others 1400 nmol/Kg): 3.1 ± 1.0; blood glucose (normal C57BL/6 mice; 10 h after single S.C., Degludec 200 nmol/Kg, others 1400 nmol/Kg): 2.8 ± 0.7; blood glucose (normal C57BL/6 mice; 24 h after single S.C., Degludec 200 nmol/Kg, others 1400 nmol/Kg): 2.1 ± 0.7; blood glucose (normal C57BL/6 mice; 48 h after single S.C., Degludec 200 nmol/Kg, others 1400 nmol/Kg): 1.7 ± 0.6; blood glucose (normal C57BL/6 mice; 72 h after single S.C., Degludec 200 nmol/Kg, others 1400 nmol/Kg): 1.8 ± 0.1; blood glucose (normal C57BL/6 mice; 96 h after single S.C., Degludec 200 nmol/Kg, others 1400 nmol/Kg): 4.0 ± 4.0; effect on blood glucose control compared with Icodec (normal C57BL/6 mice; single S.C. 1400 nmol/Kg): consistent with the trend of Icodec and can be maintained for a longer time; time after administration at which blood glucose returned to normal (normal C57BL/6 mice; [4]): > 96 h; effective glucose control time ([1]; 500 nmol/Kg S.C.): 120 h; time after administration at which blood glucose returned to normal level ([1]; 500 nmol/Kg S.C., after the first administration): 96 h; time after administration at which blood glucose returned to normal level ([1]; 500 nmol/Kg S.C., after the second and third administrations): 120 h; time after each administration at which blood glucose reached the lowest level ([1]; Icodec 250, 500 and 1000 nmol/kg, Insulin-a3 and Insulin-a10 500 nmol/Kg): 24 h; glucose control effect compared with the Icodec-1000 nmol/kg group ([1]; test drug 500 nmol/Kg S.C.): equivalent
